Data set [1] has as its system Neonatal human dermal fibroblasts. Kind of data set: Collagen synthesis (secreted procollagen 1 immunoassay). Particulars: 0.2 to 20 mM, 48 hours, serum-free medium. Type of data set: cell-based. The procedure:
Neonatal human dermal fibroblasts were purchased from Clonetics Corp., San Diego, Calif. All materials for cell culture were purchased from Life Technologies, N.Y. Cells were maintained in DMEM with 10% fetal bovine serum and used in passages 5-10, Confluent 96-well plates containing fibroblasts were treated with test materials (0.2 to 20 mM) in serum-free medium for 48 hours. […] This was carried out in a BioDot SF apparatus according to the manufacturer's instructions (BioRad Labs, CA) and the blot was developed using a Vectastain Kit (PK6104, Vector Labs, CA) as per the manufacturer's directions. Color intensity was quantitated using an Ultroscan XL densitometer (Pharmacia LKB). Fold increase was calculated as (density of treated)/untreated.

The test system of data set [2] is Normal human epidermal keratinocytes (NHEK). Kind of data set: Keratinocyte proliferation (DNA content, fluorometric). The class given is cell-based.
Protocol: Normal human epidermal keratinocytes (NHEK) derived from neonatal foreskin were used for all experiments. Media were purchased from Clonetics Corp., San Diego, Calif. Cell stocks frozen in passage 2 were grown in Keratinocyte Growth Medium (KGM) and passaged when 70-80% confluent. Cells were seeded in 96 well plates (Corning) at a density of 7500 cells/well in KGM. After 24 hours, cells were rinsed and dosed with test compounds in 200 μl of Keratinocyte Basal Medium (KBM). Plates were incubated for three days at 37° C., 5% CO2. Cell proliferation was estimated by assaying for DNA content by a fluorometric method described by Rago et al. (Analytical Biochemistry, 191:31-34, 1990). Medium was removed and cells were rinsed with phosphate buffered saline solution. 100 μl of sterile distilled water was added to each well and plates were frozen at -70° C. for one and a half hours. Plates were thawed for one hour at which time 100 μl of a 20 ug/ml solution of Bisbenzimide H33258 fluorochrome (Calbiochem Corp., La Jolla, Calif.) was added to each well. The fluorochrome was prepared just prior to use in 10 mM Tris, 1 mM EDTA, 4M NaCl, pH 7.4. Plates were read in a Millipore Cytofluor fluorescent plate reader to quantify DNA (excitation 360 nm, emission 460 nm). Percent increase over control was calculated from blank-corrected readings as (treated-untreated)/(untreated)*100%.

Molecules are shown by their SMILES. “And” between values parts separate entries of the source, which are not always exact repeats. Equal values may be shown once. Read-outs that look alike come from different tables or passages of the source.

Consider `O=C(O)CC(=O)C(=O)O` [Oxaloacetate], for which the “Maximum fold over Control (collagen synthesis)” value in data set [1] turned out to be 3.0 fold. For the same compound, in data set [2] (Homo sapiens, NHEK, 72 h, read-out: % Increase Over Control (keratinocyte proliferation), Table 9, oxaloacetate 0.002 mM), the activation at 2 µM stood at 11%. In data set [2] (Homo sapiens, NHEK, 72 h, read-out: % Increase Over Control (keratinocyte proliferation), Table 9, oxaloacetate 0.02 mM), the activation at 20 µM amounted to 15%. In addition, the activation at 80 µM in data set [2] (Homo sapiens, NHEK, 72 h, read-out: % Increase Over Control (keratinocyte proliferation), Table 9, oxaloacetate 0.08 mM) stood at 56%. Further, the activation at 200 µM in data set [2] (Homo sapiens, NHEK, 72 h, read-out: % Increase Over Control (keratinocyte proliferation), Table 9, oxaloacetate 0.2 mM) stood at 22%. For the same compound, the activation at 2500 µM in data set [2] (Homo sapiens, NHEK, 72 h, read-out: % Increase Over Control (keratinocyte proliferation), Table 9, oxaloacetate 2.5 mM) was found to be 40%. Also, the activation at 5000 µM in data set [2] (Homo sapiens, NHEK, 72 h, read-out: % Increase Over Control (keratinocyte proliferation), Table 9, oxaloacetate 5.0 mM) was 35%. Besides, the activation at 20000 µM in data set [2] (Homo sapiens, NHEK, 72 h, read-out: % Increase Over Control (keratinocyte proliferation), Table 9, oxaloacetate 20 mM) turned out to be 44%. Further, the “% Increase Over Control (keratinocyte proliferation)” value worked out at 30% in data set [2] (Table 9, oxaloacetate 0.02 mM); 20% in data set [2] (Table 9, oxaloacetate 0.2 mM); 37% in data set [2] (Table 9, oxaloacetate 2.5 mM); 52% in data set [2] (Table 9, oxaloacetate 5.0 mM).

As to `NC(=O)C(=O)O` [Oxamate], the “Maximum fold over Control (collagen synthesis)” value in data set [1] amounted to 1.4 fold. For the same compound, the activation at 25 µM in data set [2] (Homo sapiens, NHEK, 72 h, Table 3, oxamate 0.025 mM, read-out: % Increase Over Control (keratinocyte proliferation)) came out at 20%. Further, the activation at 313 µM in data set [2] (Homo sapiens, NHEK, 72 h, Table 3, oxamate 0.313 mM, read-out: % Increase Over Control (keratinocyte proliferation)) worked out at 18%. For the same compound, in data set [2] (Homo sapiens, NHEK, 72 h, Table 3, oxamate 1.25 mM, read-out: % Increase Over Control (keratinocyte proliferation)), the activation at 1250 µM came out at 28%. The activation at 20000 µM in data set [2] (Homo sapiens, NHEK, 72 h, Table 3, oxamate 20 mM, read-out: % Increase Over Control (keratinocyte proliferation)) came to 0%. In addition, the “% Increase Over Control (keratinocyte proliferation)” value is 19% in data set [2] (Table 3, oxamate 0.025 mM); 32% in data set [2] (Table 3, oxamate 0.313 mM); 24% and 40% in data set [2] (Table 3, oxamate 1.25 mM). For the same compound, the “% Increase Over Control” value in data set [2] (Table 11, oxamate 2.5 mM, pyruvate 0) is 0%; in data set [2] (Table 11, oxamate 5.0 mM, pyruvate 0), 0%; in data set [2] (Table 11, oxamate 10 mM, pyruvate 0), 0%; in data set [2] (Table 11, oxamate 15 mM, pyruvate 0), 0%; in data set [2] (Table 11, oxamate 20 mM, pyruvate 0) it was 0%; in data set [2] (Table 12, oxamate 0.313 mM, malate 0), 32%. Besides, the “% Increase Over Control” value in data set [2] (Table 12, oxamate 0.625 mM, malate 0) came out at 19%; in data set [2] (Table 12, oxamate 1.25 mM, malate 0), 40%; in data set [2] (Table 12, oxamate 2.5 mM, malate 0), 25%; in data set [2] (Table 12, oxamate 5.0 mM, malate 0), 20%; in data set [2] (Table 12, oxamate 10 mM, malate 0), 0%.

Source of the values: US5853742A, “Cosmetic compositions containing lactate dehydrogenase inhibitors” (priority 1997, dated 1998).
